Assays:
Experiment in all cases: relative viability (nuclei count vs DMSO), 5 days (fraction); higher = more cells survive
QS11 + Tozasertib = compound: C1CC2=C(C1)C=C(C=C2)OC3=NC(=C4C(=N3)N(C=N4)CC5=CC=C(C=C5)C6=CC=CC=C6)N[C@@H](CC7=CC=CC=C7)CO [QS11] + Cc1cc(Nc2cc(N3CCN(C)CC3)nc(Sc3ccc(NC(=O)C4CC4)cc3)n2)n[nH]1 [Tozasertib] (partner 0.1 µM)
Summary of the method: (§1)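 Values are medians from duplicate plates. Each reflects relative viability, defined as the nuclei count of treated wells over that of vehicle wells. Lung cancer cell lines in 1536-well plates were pin-tool dosed one day after seeding with one drug alone or with a fixed anchor-drug dose plus five library-drug doses (not always all listed) in √10 steps, then fixed, stained and imaged at 4× after 5 days.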

AZ628 + Trametinib = compound: CC1=C(C=C(C=C1)NC(=O)C2=CC(=CC=C2)C(C)(C)C#N)NC3=CC4=C(C=C3)N=CN(C4=O)C [AZ628] + CC(=O)Nc1cccc(-n2c(=O)n(C3CC3)c(=O)c3c(Nc4ccc(I)cc4F)n(C)c(=O)c(C)c32)c1 [Trametinib] (partner 0.02 µM)
Summary of the method: as §1

AZ628 + Pemetrexed = compound: CC1=C(C=C(C=C1)NC(=O)C2=CC(=CC=C2)C(C)(C)C#N)NC3=CC4=C(C=C3)N=CN(C4=O)C [AZ628] + Nc1nc2[nH]cc(CCc3ccc(C(=O)N[C@@H](CCC(=O)O)C(=O)O)cc3)c2c(=O)[nH]1 [Pemetrexed] (partner 0.2 µM)
Summary of the method: as §1

Darinaparsin + Dasatinib = compound: C[As](C)SC[C@H](NC(=O)CC[C@H](N)C(=O)O)C(=O)NCC(=O)O [Darinaparsin] + Cc1nc(Nc2ncc(C(=O)Nc3c(C)cccc3Cl)s2)cc(N2CCN(CCO)CC2)n1 [Dasatinib] (partner 0.075 µM)
Summary of the method: as §1

Cell Line	relative viability (QS11 + Tozasertib; first compound 0.253 µM)	relative viability (QS11 + Tozasertib; first compound 0.8 µM)	relative viability (QS11 + Tozasertib; first compound 2.53 µM)	relative viability (QS11 + Tozasertib; first compound 8 µM)	relative viability (AZ628 + Trametinib; first compound 0.08 µM)	relative viability (AZ628 + Trametinib; first compound 0.253 µM)	relative viability (AZ628 + Trametinib; first compound 0.8 µM)	relative viability (AZ628 + Trametinib; first compound 2.53 µM)	relative viability (AZ628 + Trametinib; first compound 8 µM)	relative viability (AZ628 + Pemetrexed; first compound 0.08 µM)	relative viability (AZ628 + Pemetrexed; first compound 0.253 µM)	relative viability (AZ628 + Pemetrexed; first compound 0.8 µM)	relative viability (AZ628 + Pemetrexed; first compound 2.53 µM)	relative viability (AZ628 + Pemetrexed; first compound 8 µM)	relative viability (Darinaparsin + Dasatinib; first compound 0.8 µM)	relative viability (Darinaparsin + Dasatinib; first compound 2.53 µM)	relative viability (Darinaparsin + Dasatinib; first compound 8 µM)	relative viability (QS11 + Tozasertib; first compound 0.08 µM)	relative viability (Darinaparsin + Dasatinib; first compound 0.08 µM)
EPLC-272H	0.17	0.258	0.248	0.292	0.26	0.207	0.222	0.189	0.17	0.229	0.309	0.265	0.293	0.248	0.275	0.223	0.371		
LXF-289	0.197	0.147	0.213	0.253	0.603	0.477	0.472	0.525	0.38	0.939	0.722	0.893	0.866	0.678	0.204	0.164	0.213	0.159	0.228
NCI-H520	0.454	0.503	0.418	0.407	0.469	0.459	0.273	0.23	0.16	0.669	0.596	0.67	0.707	0.286	0.237	0.189	0.212	0.465	0.215
NCI-H1395	0.697	0.748	0.686	0.72	0.954	0.739	0.794	0.732	0.776	0.939	0.789	0.806	0.637	0.712	0.377	0.427	0.405	0.728	0.438
H3255	0.853		0.651	0.589	0.525	0.413	0.384	0.401	0.365	0.563	0.486	0.597	0.537	0.504	0.346	0.317	0.338	0.639	0.355
NCI-H2170	0.662	0.671	0.742	0.721	0.872	0.897	0.799	0.807	0.583	0.285	0.259	0.267	0.3	0.266	0.612	0.481	0.647	0.803	0.65
NCI-H460	0.446		0.0921	0.143	0.161	0.0829	0.0419	0.0397	0.0115	0.0707	0.055	0.0564	0.0595	0.0641	0.478	0.473	0.721	0.3	0.632
PC-14	0.575	0.487	0.652	0.602	0.441	0.301	0.205	0.178	0.195	0.136	0.121	0.105	0.105	0.0944	0.24	0.245	0.211	0.552	0.189
HCC-15	0.523	0.385	0.257	0.312	0.334	0.291	0.272	0.25	0.243	0.231	0.204	0.211	0.226	0.206	0.562	0.577	0.628	0.363	0.675
NCI-H1437	0.45	0.398	0.344	0.304	0.494	0.549	0.471	0.557	0.566	0.332	0.293	0.292	0.296	0.294	0.375	0.286	0.48	0.44	0.482
COR-L23	0.177	0.137	0.156	0.141	0.292	0.237	0.271	0.211	0.271	0.22	0.23	0.198	0.219	0.21	0.493	0.39	0.497	0.17	0.694
NCI-H1975	1.01	0.585	0.408	0.225	0.331	0.272	0.228	0.259	0.288	0.333	0.257	0.27	0.287	0.259	0.404	0.388	0.386	0.823	0.42
NCI-H522	0.616	0.47	0.627	1.58	0.768	0.745	0.678	0.732	0.584	0.903	1.02	0.874	0.93	0.645	0.902	0.804	0.918	0.494	0.853
NCI-H1666	0.532	0.515	0.521	0.383	0.758	0.697	0.841	0.6	0.777	0.788	0.79	0.766	0.788	0.715	0.814	0.799	0.832	0.61	0.817
A-427	0.207		0.209	0.201	0.462	0.407	0.353	0.395	0.407	1.12	0.97	1.01	0.957	0.609	0.809	0.707	0.733	0.21	0.843
EKVX	0.367		0.302	0.457	0.368	0.227	0.248	0.273	0.195	0.419	0.422	0.338	0.407	0.312	0.488	0.53	0.512	0.369	0.504
NCI-H650	0.759	0.728	0.641	0.536	0.568	0.393	0.357	0.365	0.282	0.947	1.15	1.08	1.18	1.11	0.515	0.42	0.486	0.65	0.529

Cell Line	relative viability (QS11 + Tozasertib; first compound 0.253 µM)	relative viability (QS11 + Tozasertib; first compound 0.8 µM)	relative viability (QS11 + Tozasertib; first compound 2.53 µM)	relative viability (QS11 + Tozasertib; first compound 8 µM)	relative viability (AZ628 + Trametinib; first compound 0.08 µM)	relative viability (AZ628 + Trametinib; first compound 0.253 µM)	relative viability (AZ628 + Trametinib; first compound 0.8 µM)	relative viability (AZ628 + Trametinib; first compound 2.53 µM)	relative viability (AZ628 + Trametinib; first compound 8 µM)	relative viability (AZ628 + Pemetrexed; first compound 0.08 µM)	relative viability (AZ628 + Pemetrexed; first compound 0.253 µM)	relative viability (AZ628 + Pemetrexed; first compound 0.8 µM)	relative viability (AZ628 + Pemetrexed; first compound 2.53 µM)	relative viability (AZ628 + Pemetrexed; first compound 8 µM)	relative viability (Darinaparsin + Dasatinib; first compound 0.8 µM)	relative viability (Darinaparsin + Dasatinib; first compound 2.53 µM)	relative viability (Darinaparsin + Dasatinib; first compound 8 µM)	relative viability (QS11 + Tozasertib; first compound 0.08 µM)	relative viability (Darinaparsin + Dasatinib; first compound 0.08 µM)
NCI-H2087	0.225		0.243	0.265	0.18	0.191	0.161	0.152	0.184	0.671	0.632	0.604	0.501	0.281	0.906	0.793	1.52	0.245	1.11
NCI-H1755	0.555	0.454	0.515	0.411	0.63	0.604	0.483	0.561	0.305	0.421	0.434	0.403	0.579	0.353	0.448	0.346	0.468	0.617	0.438
COR-L 105	0.296	0.335	0.391	0.336	0.435	0.401	0.382	0.352	0.36	1.35	1.03	1.18	1.16	1.03	0.31	0.309	0.277	0.364	0.32
NCI-H838	0.276	0.232	0.224	0.209	0.491	0.466	0.486	0.477	0.556	0.261	0.23	0.243	0.242	0.225	0.286	0.271	0.338	0.293	0.301
NCI-H1993	0.573	0.605	0.669	0.616	0.456	0.516	0.479	0.535	0.667	0.631	0.598	0.47	0.488	0.461	0.532	0.535	0.575	0.563	0.68
NCI-H1650	0.368	0.436	0.358	0.402	0.502	0.541	0.329	0.327	0.497	0.403	0.386	0.419	0.431	0.38	0.36	0.343	0.297	0.244	0.397
HARA	0.117		0.0916	0.102	0.209	0.168	0.15	0.172	0.356	0.255	0.221	0.226	0.231	0.193	0.282	0.232	0.259	0.0847	0.3
PC-3 [JPC-3]	0.939	0.857	0.972	0.764	0.685	0.579	0.647	0.574	0.386	1.29	0.984	1.22	1.16	0.925	1	0.826	1.01	0.881	1.11
NCI-H441	0.572	0.582	0.481	0.581	0.405	0.306	0.386	0.283	0.437	0.279	0.252	0.235	0.263	0.26	0.581	0.558	0.737	0.642	0.6
NCI-H1793	0.328	0.257	0.32	0.338	0.388	0.332	0.282	0.198	0.206	1.16	0.617	0.971	0.757	0.522	0.366	0.348	0.424	0.305	0.421
NCI-H2126	0.849	0.817	0.886	0.795	0.559	0.512	0.498	0.562	0.481	0.757	0.665	0.586	0.655	0.588	0.616	0.556	0.681	0.803	0.56
BEN	0.529	0.504	0.485	0.486	1.12	1.01	0.806	1.02	0.783	0.776	0.614	0.737	0.716	0.749	0.308	0.31	0.371	0.441	0.305
HCC-366	0.0935		0.0603	0.0521	0.277	0.242	0.204	0.233	0.156	0.156	0.215	0.225	0.169	0.161	0.758	0.734	1.07	0.133	0.709
LCLC-103H	0.496	0.358	0.477	0.43	0.58	0.586	0.657	0.565	0.584	0.423	0.464	0.445	0.437	0.402	0.449	0.409	0.533	0.389	0.577
NCI-H596	0.879	0.923	0.93	1.13	0.779	0.711	0.622	0.786	0.756	0.496	0.485	0.521	0.525	0.521	0.625	0.632	0.566	0.875	0.624
NCI-H1944	0.274		0.271	0.24	0.321	0.305	0.254	0.295	0.33	0.624	0.576	0.511	0.52	0.394	0.2	0.208	0.192	0.258	0.203
